Assay results from patent US20040005708A1, “Polypeptide derivatives and nucleic acid carriers containing the same” (priority 2002, published 2004).

Key:
[1] = tested on: HepG2 cells; conditions: Plasmid A (luciferase) complex, plasmid/pDBA weight ratio 1/3 to 1/7, 10% fetal bovine serum, 4 h then 48 h incubation, compared to non-modified pDBA
Procedure: Thirty minutes prior to administration, the nucleic acid carriers were added dropwise to the plasmid solution while stirring to prepare plasmid/pDBA complex solutions. PBS was used as solvent. Specifically, 25.0 μg/ml plasmid solutions were prepared, and plasmid/pDBA complex solutions having a plasmid concentration of 12.5 μg/ml were used as the gene transfer samples.
HepG2 cells were inoculated onto a 12-well multi-well plate (Coaster Inc.) at 1×10^5 cells/well one day prior to testing. The plasmid/pDBA complex solution was added to the HepG2 cells in the presence of 10% fetal bovine serum (Sanko Junyaku Co. Ltd.), and incubation was carried out at 37° C. for 4 hours. Medium was exchanged with a fresh culture medium and incubation continued for 48 hours. After washing with PBS twice, a cell lysis reagent (Toyo Ink Co. Ltd.) was added and freeze-thaw was carried out once. The cell lysate was recovered and subjected to centrifugation (12,000 rpm×10 minutes). The luciferase activity of the supernatant was determined with a luminometer (LumitLB9501; Berthold Inc.) using a luciferase assay system (Toyo Ink Co. Ltd.). The protein concentration of the centrifuged supernatant was also determined with a microplate reader (Rainbow Themo; Tecan Inc.) using a protein assay kit (Bio-Rad Inc.). […]

[2] = tested on: mice; conditions: tail vein, Plasmid A 12.5 μg/0.5 ml per mouse, plasmid/pDBA weight ratio 1/3, two days after administration
Procedure: A solution of Plasmid A and a solution of pDBA were prepared at twice the desired concentration. Thirty minutes prior to administration, the pDBA solutions were added dropwise to the plasmid solution while stirring to prepare plasmid/pDBA complexes solution. PBS was used as solvent. Specifically, 50.0 μg/ml plasmid solutions were prepared, and plasmid/pDBA complex solutions having a plasmid concentration of 25 μg/ml were used as the gene transfer samples.
The complex solutions were administered to mice through their tail veins. The dosage of Plasmid A per mouse was 12.5 μg/0.5 ml. Two days after administration the gene transfer to the tissue was determined by measuring the luciferase activity found in the liver.

## side chain galactose-modified poly-DL-diaminobutyric acid [Gal-pDBA]
[1]
  activity of luciferase expressed: higher luciferase activity than did non-modified pDBA
[2]
  luciferase activity in the liver as compared to the group where pDBA was used as the nucleic acid carrier: about 2.5 fold
